Experimental data taken from PMC8580996, “2-Oxoglutarate derivatives can selectively enhance or inhibit the activity of human oxygenases” (Nature Communications, 2021).

Key:
FIH [1] = target: T1, FIH (Homo sapiens, UniProt Q9NWT6); assay: 1H NMR assay of FIH-catalyzed oxidative decarboxylation of cosubstrate, with SPE-MS of final mixture; type: biochemical; details: 5 μM FIH, 150 μM CA1-20, 150 μM cosubstrate; for hydroxylation of CA1-20 peptide in final reaction mixture (SPE-MS): t = 10 min; for FIH-catalyzed conversion of cosubstrate to succinate / 2-methylsuccinate (1H NMR): within 5 min
Description: Supplementary Figure 2. […] FIH- […]
catalyzed oxidative decarboxylation of 2OG was monitored using a Bruker AVIII 700 NMR machine equipped with a 5 mm 1H(13C/15N) inverse cryoprobe; spectra were analyzed using the Bruker TopSpin 3.6.1 software.
50 μM ammonium iron(II) sulfate hexahydrate (FAS, (NH4)2Fe(SO4)2·6H2O) in 50 mM aqueous Tris-d11 containing 10% v/v D2O (pH 7.5, 25° C). The ratio of the CA 1-20 peptide and the hydroxylated CA 1-20(Ox) peptide, which is the product of the F IH-catalyzed hydroxylation reaction, was determined using SPE-MS after NMR […]
(a) Close-up (3.0-2.2 ppm) of the 1H NMR spectrum of commercial 2OG in 50 mM aqueous Tris-d11 containing 10%v/v D2O (pH 7.5, 25° C); (b) Close-up (3.0-2.2 ppm) of the 1H NMR spectrum of commercial succinate in 50 […]
FIH-catalyzed oxidative decarboxylation of 3-methyl-2OG (1) was monitored using a Bruker AVIII 700 NMR machine equipped with a 5 mm 1H(13C/15N) inverse cryoprobe; spectra were analyzed using the […]
Bruker TopSpin 3.6.1 software. […]
in 50 mM aqueous Tris -d11 containing 10% v/v D2O (pH 7.5, 25° C). The ratio of the CA 1-20 peptide and the hydroxylated CA 1-20(Ox) peptide, which is the product of the FIH -catalyzed hydroxylation reaction, was […]
(a) Close -up (3.4 -0.9 ppm) of the 1H NMR spectrum of synthetic 1 in 50 mM aqueous Tris-d11 containing 10% v/v D2O (pH 7.5, 2 5° C); ( b) Close -up (3.4 -0.9 ppm) of the 1H NMR spectrum of commercial 2 -methylsuccinate ( 36) […]
FIH-catalyzed oxidative decarboxylation of 4-methyl-2OG (12) was monitored using a Bruker AVIII 700 NMR machine equipped with a 5 mm 1H(13C/15N) inverse cryoprobe; spectra were analyzed using the Bruker TopSpin 3.6.1 software.
(NH4)2Fe(SO4)2·6H2O) in 50 mM aqueous Tris-d11 containing 10% v/v D2O (pH 7.5, 25° C). The ratio of the CA 1-20 peptide and the hydroxylated CA 1-20(Ox) peptide, which is the product of the FI H-catalyzed hydroxylation […]
(a) Close -up (3.3 -0.9 ppm) of the 1H NMR spectrum of synthetic 12 in 50 mM aqueous Tris-d11 containing 10% v/v D2O (pH 7.5, 25° C); ( b) Close -up (3.4 -0.9 ppm) of the 1H NMR spectrum of commercial 2 -methylsuccinate ( 36)

FIH [2] = target: T1, FIH; assay: Mechanism of FIH inhibition: 2OG kinetics at variable concentrations of 18 (Ki, Cornish-Bowden plot); type: biochemical; details: absence of 18, HIF-1α788-822
Description: Supplementary Figure 28. Determination of the FIH Kapp for 4-(3-phenylprop-1-yl)-2OG (18) (continues on […]
the following page). […]
(LAA), and 20 μM ammonium iron(II) sulfate hexahydrate (FAS, (NH4)2Fe(SO4)2·6H2O) in buffer (50 mM Tris, 50 mM NaCl, pH 7.5, 20° C). Measurement times were normalized to the first sample injection analyzed after the […]
are shown as the mean of independent triplicates (n = 3; mean ± standard deviation, SD). […]
2OG concentrations, determined in the presence of 0.5 μM 18; (e) hydroxylation rates used for the kinetic analysis; […]

T1 sequence (Q9NWT6 whole entry): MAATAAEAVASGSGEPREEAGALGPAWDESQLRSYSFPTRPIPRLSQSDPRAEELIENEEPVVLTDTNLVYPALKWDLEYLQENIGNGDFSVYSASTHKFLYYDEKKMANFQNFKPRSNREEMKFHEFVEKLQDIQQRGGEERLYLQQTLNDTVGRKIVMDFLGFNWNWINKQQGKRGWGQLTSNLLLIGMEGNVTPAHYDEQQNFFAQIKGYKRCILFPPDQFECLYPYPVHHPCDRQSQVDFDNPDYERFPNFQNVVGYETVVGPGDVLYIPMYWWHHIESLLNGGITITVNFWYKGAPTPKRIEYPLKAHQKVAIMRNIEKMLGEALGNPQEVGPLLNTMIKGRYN

Row | hydroxylation of CA1-20 peptide in final reaction mixture (SPE-MS) (FIH [1]) [%] | FIH-catalyzed conversion of cosubstrate to succinate / 2-methylsuccinate (1H NMR) (FIH [1]) | FIH Kmapp for 2OG (FIH [2]) [µM] | FIH vmaxapp for 2OG (FIH [2]) | Structure (SMILES)
1 | > 95 | ~ 65% | – | – | CC(CC(=O)C(=O)O)C(=O)O (stereo not drawn) [compound 12, 4-methyl-2OG]
2 | > 95 | ~ 70% | 0.74 ± 0.07 | 5.9 ± 0.1 10-3 μM·s-1 | O=C(O)CCC(=O)C(=O)O [2OG, 2-Oxoglutarate]
